Experiments:
Format in all cases: cell-based
Enterococcus faecalis = assay: reference broth microdilution susceptibility assay
From the text: (§1) The halocombstatins of the present invention appear to also have antimicrobial properties. More specifically, they appear to have antifungal and/or antibacterial properties. Antimicrobial evaluation of the halocombstatins involved susceptibility testing performed by the reference broth microdilution assay. The antimicrobial activities of the halocombstatins were very similar, targeting Gram-positive bacteria and the pathogenic fungi Cryptococcus neoformans, and results are shown in Table III.
(§2) (See Pettit, G. R., et al., Antineoplastic Agents 463. Synthesis of Combretastatin A-3 Diphosphates, Anticancer Drug Design 2000, 15, 397-404.) To determine the antimicrobial activity of the present compounds, susceptibility testing was performed by the reference broth microdilution assay. (See National Committee for Clinical Laboratory Standards. Methods for Dilution Antimicrobial Susceptibility Tests for Bacteria that Grow Aerobically. Approved Standard M7-A5. Wayne, P A: NCCLS, 2000. National Committee for Clinical Laboratory Standards. Reference Method for Broth Dilution Antifungal Susceptibility Testing of Yeasts. Aproved Standard M27-A. Wayne, P A: NCCLS, 1997.) The antimicrobial activities of the halocombretastatins of the present invention were very similar, targeting Gram-positive bacteria and Cryptococcus neoformans. This is illustrated in further detail in Table III. Thus, several of the novel compounds of the present invention appear to have potential as antimicrobial agents, such as antifingals and antibacterials.

[1] = tested on: Stenotrophomonas maltophilia; assay: reference broth microdilution susceptibility assay
From the text: as §1, §2

Enterobacter cloacae = assay: reference broth microdilution susceptibility assay
From the text: as §1, §2

Neisseria gonorrhoeae = assay: reference broth microdilution susceptibility assay
From the text: as §1, §2

Staphylococcus aureus = assay: reference broth microdilution susceptibility assay
From the text: as §1, §2

Streptococcus pneumoniae = assay: reference broth microdilution susceptibility assay
From the text: as §1, §2

Cryptococcus neoformans = assay: reference broth microdilution susceptibility assay
From the text: as §1, §2

Micrococcus luteus = assay: reference broth microdilution susceptibility assay
From the text: as §1, §2

Escherichia coli = assay: reference broth microdilution susceptibility assay
From the text: as §1, §2

Candida albicans = assay: reference broth microdilution susceptibility assay
From the text: as §1, §2

CNS SF268 = assay: human cancer cell growth inhibition, sulforhodamine B assay; conditions: 48 hours; for Human cancer cell line inhibition (GI50) CNS SF268: Table I; for human cancer cell line growth inhibition (GI50) CNS SF268: Table Ia
Description: (§3) Inhibition of human cancer cell growth was assessed using the National Cancer Institute's standard sulforhodamine B assay. After 48 hours, the plates were fixed with trichloracetic acid, stained with sulforhodamine B and read with an automated microplate reader. […] Inhibition of the mouse leukemia P388 cells was assessed in a 10% horse serum/Fisher medium soution for 24 hours, followed by a 48 hour incubation with serial dilutions of the compounds. Cell growth inhibition (ED50) was then calculated using a Z1 Becleman/Coulter particle counter.

Pancreas BXPC-3 = assay: as above; conditions: 48 hours; for Human cancer cell line inhibition (GI50) Pancreas-a BXPC-3: Table I; for human cancer cell line growth inhibition (GI50) Pancreas BXPC-3: Table Ia
Description: as §3

Colon KM20L2 = assay: as above; conditions: 48 hours; for Human cancer cell line inhibition (GI50) Colon KM20L2: Table I; for human cancer cell line growth inhibition (GI50) Colon KM20L2: Table Ia
Description: as §3

Lung-NSC NCI-H460 = assay: as above; conditions: 48 hours; for Human cancer cell line inhibition (GI50) Lung-NSC NCI-H460: Table I; for human cancer cell line growth inhibition (GI50) Lung-NSC NCI-H460: Table Ia
Description: as §3

Breast MCF-7 = assay: as above; conditions: 48 hours; for Human cancer cell line inhibition (GI50) Breast adn MCF-7: Table I; for human cancer cell line growth inhibition (GI50) Breast MCF-7: Table Ia
Description: as §3

Prostate DU-145 = assay: as above; conditions: 48 hours; for Human cancer cell line inhibition (GI50) Prostate DU-145: Table I; for human cancer cell line growth inhibition (GI50) Prostate DU-145: Table Ia
Description: as §3

Molecule | Human cancer cell line inhibition (GI50) CNS SF268 (CNS SF268) [ng/mL] | Human cancer cell line inhibition (GI50) Pancreas-a BXPC-3 (Pancreas BXPC-3) [µg/mL] | Human cancer cell line inhibition (GI50) Colon KM20L2 (Colon KM20L2) [µg/mL] | Human cancer cell line inhibition (GI50) Lung-NSC NCI-H460 (Lung-NSC NCI-H460) [ng/mL] | Human cancer cell line inhibition (GI50) Breast adn MCF-7 (Breast MCF-7) [ng/mL] | Human cancer cell line inhibition (GI50) Prostate DU-145 (Prostate DU-145) [ng/mL] | human cancer cell line growth inhibition (GI50) CNS SF268 (CNS SF268) [µg/mL] | human cancer cell line growth inhibition (GI50) Pancreas BXPC-3 (Pancreas BXPC-3) [µg/mL] | human cancer cell line growth inhibition (GI50) Colon KM20L2 (Colon KM20L2) [µg/mL] | human cancer cell line growth inhibition (GI50) Lung-NSC NCI-H460 (Lung-NSC NCI-H460) [µg/mL] | human cancer cell line growth inhibition (GI50) Breast MCF-7 (Breast MCF-7) [µg/mL] | human cancer cell line growth inhibition (GI50) Prostate DU-145 (Prostate DU-145) [µg/mL] | also measured
3-Brombo-4,4′,5-trimethoxy-3′-hydroxy-E-stilbene [Compound 13b] | 180 | 1.6 | 1.2 | 150 | 140 | 130 | – | – | – | – | – | – | Range of minimum inhibitory concentration, Enterococcus faecalis (Enterococcus faecalis; Table III): * (no inhibition at 64 μg/ml); Range of minimum inhibitory concentration, Stenotrophomonas maltophilia ([1]; Table III): * (no inhibition at 64 μg/ml); Range of minimum inhibitory concentration, Enterobacter cloacae (Enterobacter cloacae; Table III): * (no inhibition at 64 μg/ml); Range of minimum inhibitory concentration, Neisseria gonorrhoeae (Neisseria gonorrhoeae; Table III): * (no inhibition at 64 μg/ml); Range of minimum inhibitory concentration, Staphylococcus aureus (Staphylococcus aureus; Table III): * (no inhibition at 64 μg/ml); Range of minimum inhibitory concentration, Streptococcus pneumoniae (Streptococcus pneumoniae; Table III): * (no inhibition at 64 μg/ml); Range of minimum inhibitory concentration, Cryptococcus neoformans (Cryptococcus neoformans; Table III): * (no inhibition at 64 μg/ml); Range of minimum inhibitory concentration, Micrococcus luteus (Micrococcus luteus; Table III): * (no inhibition at 64 μg/ml); Range of minimum inhibitory concentration, Escherichia coli (Escherichia coli; Table III): * (no inhibition at 64 μg/ml); Range of minimum inhibitory concentration, Candida albicans (Candida albicans; Table III): * (no inhibition at 64 μg/ml)
COc1ccc(/C=C\c2cc(I)c(OC)c(I)c2)cc1OP(=O)([O-])[O-].[Na+].[Na+] [Compound 0] | – | – | – | – | – | – | – | – | – | – | – | – | Range of MIC, Enterococcus faecalis (Enterococcus faecalis; Table VII, ATCC 29212): * (no inhibition at 64 μg/ml); Range of MIC, Stenotrophomonas maltophilia ([1]; Table VII, ATCC 13637): * (no inhibition at 64 μg/ml); Range of MIC, Enterobacter cloacae (Enterobacter cloacae; Table VII, ATCC 13047): * (no inhibition at 64 μg/ml); Range of MIC, Neisseria gonorrhoeae (Neisseria gonorrhoeae; Table VII, ATCC 49226): 32 to 64 µg/mL; Range of MIC, Staphylococcus aureus (Staphylococcus aureus; Table VII, ATCC 29213): * (no inhibition at 64 μg/ml); Range of MIC, Streptococcus pneumoniae (Streptococcus pneumoniae; Table VII, ATCC 6303): * (no inhibition at 64 μg/ml); Range of MIC, Cryptococcus neoformans (Cryptococcus neoformans; Table VII, ATCC 90112): * (no inhibition at 64 μg/ml); Range of MIC, Micrococcus luteus (Micrococcus luteus; Table VII, Presque Isle 456): * (no inhibition at 64 μg/ml); Range of MIC, Escherichia coli (Escherichia coli; Table VII, ATCC 25922): * (no inhibition at 64 μg/ml); Range of MIC, Candida albicans (Candida albicans; Table VII, ATCC 90028): * (no inhibition at 64 μg/ml)
C1COCCN1.C1COCCN1.COc1ccc(/C=C\c2cc(I)c(OC)c(I)c2)cc1OP(=O)(O)O [V] | – | – | – | – | – | – | 0.054 | 0.35 | >1 | 0.033 | 0.066 | 0.028 | –
C1CCNCC1.C1CCNCC1.COc1ccc(/C=C\c2cc(I)c(OC)c(I)c2)cc1OP(=O)(O)O [W] | – | – | – | – | – | – | 0.041 | 0.33 | >1 | 0.025 | 0.070 | 0.025 | –
COC(=O)CN.COC(=O)CN.COc1ccc(/C=C\c2cc(I)c(OC)c(I)c2)cc1OP(=O)(O)O [X] | – | – | – | – | – | – | 0.054 | 0.36 | >1 | 0.030 | 0.10 | 0.023 | –
COC(=O)C(N)Cc1c[nH]c2ccccc12.COC(=O)C(N)Cc1c[nH]c2ccccc12.COc1ccc(C=Cc2cc(I)c(OC)c(I)c2)cc1OP(=O)(O)O [Y] | – | – | – | – | – | – | 0.086 | 0.37 | >1 | 0.033 | 0.22 | 0.026 | –
COc1ccc(/C=C\c2cc(I)c(OC)c(I)c2)cc1OP(=O)(O)O.NC(CO)(CO)CO.NC(CO)(CO)CO [Z] | – | – | – | – | – | – | 0.040 | 0.33 | 0.94 | 0.025 | 0.047 | 0.021 | –
Calcium 3-bromo-4,4′,5-trimethoxy-Z-stilbene 3′-O-phosphate [Compound 19f] | 2.2 | <0.001 | 0.37 | 6.8 | 2.2 | 6.3 | – | – | – | – | – | – | –
Cesium 3-bromo-4,4′,5-trimethoiy-phenyl-Z-stilbene 3′-O-phosphate [Compound 19d] | 6.4 | 0.15 | 0.48 | 6.6 | 4.4 | 7.9 | – | – | – | – | – | – | –
Lithium 3-bromo-4,4′,5-trbnethoxy-Z-stilbene 3′-O-phosphate [Compound 19b] | 3 | 0.13 | 0.11 | 2.6 | 3.9 | 6.6 | – | – | – | – | – | – | –
Magnesium 3-bromg-4,4′,5-trimethoxy-Z-stilbene 3′-O-phosphate [Compound 19g] | 5.3 | 0.074 | 0.27 | 3.9 | 4.5 | 4.5 | – | – | – | – | – | – | –
Potassium 3-bromo-4,4′,5-trimethoxy-Z-stilbene 3′-O-phosphate [Compound 19c] | 3.2 | 0.20 | 0.24 | 2.9 | 3.5 | 2.8 | – | – | – | – | – | – | –
Rubidium 3-bromo-4,4′,5-trimetboxy-Z-stilbene 3′-O-phosphate [Compound 19e] | 23 | 0.56 | 2.6 | 41 | 43 | 42 | – | – | – | – | – | – | –
Sodium 3-bromo-4,4′,-5-trimethoxy-Z-stilbene 3′-O-phosphate [Compound 19a] | 3.4 | 0.093 | 0.23 | 2.8 | 4.1 | 4.6 | – | – | – | – | – | – | –
sodium combretastatin A-4 phosphate [Compound 1b, reference compound] | 36 | – | 0.034 | 29 | – | – | – | – | – | – | – | – | –

Source: patent publication US20070167412A1, “HALOCOMBSTATINS AND METHODS OF SYNTHESIS THEREOF” (ARIZONA BOARD OF REGENTS, priority 2003, published 2007)
